Source: patent US11186580B2, “Crystalline forms of a phosphoinositide 3-kinase (PI3K) inhibitor” (Incyte Corporation, priority 2018, dated 2021)
pIC50: −log10 of the molar value. Where two headings read alike, the source gives them in different places.

How the values were obtained:
[1] = target: PI3Kδ (p110δ/p85α) Recombinant Human Protein (Homo sapiens (Human), UniProt O00329); test: PI3Kδ Scintillation Proximity Assay; assay type: biochemical; details: 2 μM ATP, 20 μM PIP2, 3.4 nM PI3Kδ
Source text: PI3Kδ Scintillation Proximity Assay
(§1) [γ-^33P]ATP (10 mCi/mL) and Wheat Germ Agglutinin (WGA) YSi SPA Scintillation Beads was purchased from Perkin-Elmer (Waltham, Mass.). Lipid kinase substrate, D-myo-Phosphatidylinositol 4,5-bisphosphate (PtdIns(4,5)P2)D (+)-sn-1,2-di-O-octanoylglyceryl, 3-O-phospho linked (PIP2), CAS 204858-53-7, was purchased from Echelon Biosciences (Salt Lake City, Utah). PI3Kδ (p110δ/p85α) Recombinant Human Protein was purchased from Eurofins (St Charles, Mo.). ATP, MgCl2, DTT, EDTA, MOPS and CHAPS were purchased from SigmaAldrich (St. Louis, Mo.).
The kinase reaction was conducted in polystyrene 384-well Greiner Bio-one white plate from Thermo Fisher Scientific in a final volume of 25 μL. Inhibitors were first diluted serially in DMSO and added to the plate wells before the addition of other reaction components. The final concentration of DMSO in the assay was 2%. The PI3Kδ assay was carried out at room temperature in 20 mM MOPS, pH 6.7, 10 mM MgCl2, 5 mM DTT and CHAPS 0.03%. Reactions were initiated by the addition of ATP, the final reaction mixture consisted of 20 μM PIP2, 2 μM ATP, 0.5 μCi [γ-^33P] ATP, 3.4 nM PI3Kδ. Reactions were incubated for 120 min and terminated by the addition of 40 μL SPA beads suspended in quench buffer: 163 mM potassium phosphate pH 7.8, 20% glycerol, 25 mM EDTA. The final concentration of SPA beads is 1.0 mg/mL. After the plate sealing, plates were shaken overnight at room temperature and centrifuged at 1500 rpm for 10 min, the radioactivity of the product was determined by scintillation counting on Topcount (PerkinElmer). IC50 determination was performed by fitting the curve of percent of the solvent control activity versus the log of the inhibitor concentration using the GraphPad Prism 6.0 software.

[2] = target: PI3Kγ (p110γ) Recombinant Human Protein (Homo sapiens (Human), UniProt P48736); test: PI3K-γ Scintillation Proximity Assay; assay type: biochemical; details: 2 μM ATP, 20 μM PIP2, 13 nM PI3Kγ
Source text: PI3K-γ Scintillation Proximity Assay
as §1, with “[γ-^33]ATP” for “[γ-^33P]ATP”, “PI3Kγ (p110γ)” for “PI3Kδ (p110δ/p85α)”, “Life technology (Grand Island, N.Y.).” for “Eurofins (St Charles, Mo.).”
The kinase reaction was conducted in polystyrene 384-well Greiner Bio-one white plate from Thermo Fisher Scientific in a final volume of 25 μL. Inhibitors were first diluted serially in DMSO and added to the plate wells before the addition of other reaction components. The final concentration of DMSO in the assay was 2%. The PI3Kγ assay was carried out at room temperature in 20 mM MOPS, pH 6.7, 10 mM MgCl2, 5 mM DTT and CHAPS 0.03%. Reactions were initiated by the addition of ATP, the final reaction mixture consisted of 20 μM PIP2, 2 μM ATP, 0.5 μCi [γ-^33P] ATP, 13 nM PI3Kγ. […] After the plate sealing, plates were shaken overnight at room temperature and centrifuged at 1500 rpm for 10 min, the radioactivity of the product was determined by scintillation counting on Topcount (Perkin-Elmer). […]

[3] = system: Phosphorylated Ribosomal Protein S6 (RPS6) in THP-1 cells (PI3Kγ); test: THP-1 RPS6 ELISA Assay; assay type: cell-based, Human; details: 10 nM MCP-1 for 15 minutes, Phospho-RPS6 ELISA, read-out: PI3Kγ_THP1_RPS6_ELISA IC50
Method: To measure the Phosphorylated Ribosomal Protein S6 (RPS6) in cell lysates, THP-1 cells (Human Acute Monocytic Leukemia) are purchased from ATCC (Manassas, Va.) and maintained in RPMI with 10% FBS (Gibco/Life Technologies, Carlsbad, Calif.). For the assay, THP-1 cells are serum starved overnight in RPMI, then plated in RPMI (2×10^5 cells/well in 90 μL) into 96-well flat-bottom tissue culture treated plates (Corning, Corning, N.Y.), in the presence or absence of a concentration range of test compounds. Covered plates are incubated for 2 hours at 37° C., 5% CO2 then treated with or without 10 nM MCP-1(MYBioSource, San Diego, Calif.) for 15 minutes at 37° C., 5% CO2. Plates are centrifuged at 1600 RPM and supernatants are removed. Cells are lysed in Lysis Buffer (Cell Signaling, Danvers, Mass.) with Protease Inhibitor (Calbiochem/EMD, Germany), PMSF (Sigma, St Louis Mo.), HALTS (Thermo Fisher, Rockford, Ill.) for 30 min on wet ice. Cell lysates are frozen at −80° C. before testing. The lysates are tested in the Human/Mouse/Rat Phospho-RPS6 ELISA (R&D Systems, Inc. Minn, Minn.). The plate is measured using a microplate reader (SpectraMax M5—Molecular Devices, LLC Sunnyvale, Calif.) set to 450 nm with a wavelength correction of 540. IC50 determination is performed by fitting the curve of inhibitor percent inhibition versus the log of the inhibitor concentration using the GraphPad Prism 5.0 software.

PI3Kδ (p110δ/p85α) Recombinant Human Protein, sequence (O00329 whole entry): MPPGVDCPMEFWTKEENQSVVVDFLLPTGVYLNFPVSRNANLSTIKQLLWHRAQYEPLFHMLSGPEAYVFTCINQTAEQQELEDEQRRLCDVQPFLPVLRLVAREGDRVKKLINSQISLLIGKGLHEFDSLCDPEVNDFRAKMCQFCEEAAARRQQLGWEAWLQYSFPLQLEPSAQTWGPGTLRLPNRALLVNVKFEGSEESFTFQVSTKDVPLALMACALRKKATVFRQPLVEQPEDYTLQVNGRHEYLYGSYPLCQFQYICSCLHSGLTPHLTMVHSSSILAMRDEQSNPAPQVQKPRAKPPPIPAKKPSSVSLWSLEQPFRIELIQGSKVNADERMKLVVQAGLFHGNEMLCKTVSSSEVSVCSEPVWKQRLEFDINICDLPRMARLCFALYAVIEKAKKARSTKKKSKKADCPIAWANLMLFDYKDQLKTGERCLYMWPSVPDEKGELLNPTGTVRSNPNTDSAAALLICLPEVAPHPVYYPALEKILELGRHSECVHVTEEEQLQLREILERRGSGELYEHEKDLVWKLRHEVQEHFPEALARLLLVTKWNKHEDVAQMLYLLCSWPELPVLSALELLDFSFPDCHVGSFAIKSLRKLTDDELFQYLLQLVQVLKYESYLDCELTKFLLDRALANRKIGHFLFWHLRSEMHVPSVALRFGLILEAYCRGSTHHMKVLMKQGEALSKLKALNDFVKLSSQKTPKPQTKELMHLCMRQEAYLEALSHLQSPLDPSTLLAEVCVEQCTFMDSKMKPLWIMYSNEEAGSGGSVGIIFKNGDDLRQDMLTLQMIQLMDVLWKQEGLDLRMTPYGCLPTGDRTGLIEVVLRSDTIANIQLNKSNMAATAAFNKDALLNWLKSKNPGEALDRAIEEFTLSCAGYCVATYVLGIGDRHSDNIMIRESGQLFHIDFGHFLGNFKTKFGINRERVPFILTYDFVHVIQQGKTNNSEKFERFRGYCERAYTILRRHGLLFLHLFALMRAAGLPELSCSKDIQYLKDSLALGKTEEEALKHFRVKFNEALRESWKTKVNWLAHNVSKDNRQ
PI3Kδ (p110δ/p85α) Recombinant Human Protein, sequence (P27986 whole entry partner): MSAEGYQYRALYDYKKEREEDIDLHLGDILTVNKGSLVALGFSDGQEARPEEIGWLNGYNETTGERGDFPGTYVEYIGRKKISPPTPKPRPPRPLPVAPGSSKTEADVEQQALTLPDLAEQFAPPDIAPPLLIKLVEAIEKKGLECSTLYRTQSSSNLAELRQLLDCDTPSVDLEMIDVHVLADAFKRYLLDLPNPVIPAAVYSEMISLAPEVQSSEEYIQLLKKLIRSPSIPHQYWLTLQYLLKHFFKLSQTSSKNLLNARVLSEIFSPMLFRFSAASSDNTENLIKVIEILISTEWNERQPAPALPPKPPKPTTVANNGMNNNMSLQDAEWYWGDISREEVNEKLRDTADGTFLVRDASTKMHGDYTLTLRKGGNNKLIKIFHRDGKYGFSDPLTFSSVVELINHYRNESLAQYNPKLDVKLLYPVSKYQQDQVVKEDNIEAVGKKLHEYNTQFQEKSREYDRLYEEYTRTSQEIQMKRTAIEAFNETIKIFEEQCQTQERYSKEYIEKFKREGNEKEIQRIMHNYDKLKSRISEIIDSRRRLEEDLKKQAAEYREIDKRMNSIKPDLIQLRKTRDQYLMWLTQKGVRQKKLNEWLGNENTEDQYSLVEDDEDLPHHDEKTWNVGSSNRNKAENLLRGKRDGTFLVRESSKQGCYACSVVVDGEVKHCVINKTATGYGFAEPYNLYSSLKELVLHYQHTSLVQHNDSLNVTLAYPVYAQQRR
PI3Kγ (p110γ) Recombinant Human Protein, sequence (P48736 whole entry): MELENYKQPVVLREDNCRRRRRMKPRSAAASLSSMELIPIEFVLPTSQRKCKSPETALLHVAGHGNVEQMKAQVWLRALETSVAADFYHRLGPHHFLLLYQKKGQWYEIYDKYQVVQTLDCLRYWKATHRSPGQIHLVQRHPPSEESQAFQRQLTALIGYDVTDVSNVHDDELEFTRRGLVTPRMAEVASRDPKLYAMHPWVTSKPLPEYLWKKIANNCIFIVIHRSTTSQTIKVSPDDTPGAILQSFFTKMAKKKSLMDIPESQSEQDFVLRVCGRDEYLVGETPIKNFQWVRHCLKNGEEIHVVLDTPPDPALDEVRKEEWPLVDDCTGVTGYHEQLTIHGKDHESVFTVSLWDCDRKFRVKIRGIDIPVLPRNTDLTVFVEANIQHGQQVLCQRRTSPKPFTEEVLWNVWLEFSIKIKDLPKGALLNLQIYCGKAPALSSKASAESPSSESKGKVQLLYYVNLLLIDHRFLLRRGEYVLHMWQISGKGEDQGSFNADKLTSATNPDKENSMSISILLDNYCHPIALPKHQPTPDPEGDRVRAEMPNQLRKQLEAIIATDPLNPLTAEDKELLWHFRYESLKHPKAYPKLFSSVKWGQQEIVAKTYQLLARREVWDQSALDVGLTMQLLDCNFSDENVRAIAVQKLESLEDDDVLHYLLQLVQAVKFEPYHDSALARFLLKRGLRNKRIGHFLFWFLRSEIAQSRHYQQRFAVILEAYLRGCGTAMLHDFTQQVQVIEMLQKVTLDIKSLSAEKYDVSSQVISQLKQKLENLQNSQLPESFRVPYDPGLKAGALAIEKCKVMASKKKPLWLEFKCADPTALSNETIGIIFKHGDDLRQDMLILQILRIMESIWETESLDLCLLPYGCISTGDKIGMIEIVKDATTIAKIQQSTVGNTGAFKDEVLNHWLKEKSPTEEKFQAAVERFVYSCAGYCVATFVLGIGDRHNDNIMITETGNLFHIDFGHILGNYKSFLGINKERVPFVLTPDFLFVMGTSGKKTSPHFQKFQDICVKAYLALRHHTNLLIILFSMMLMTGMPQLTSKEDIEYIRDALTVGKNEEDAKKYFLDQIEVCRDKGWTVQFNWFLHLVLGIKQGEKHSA

pIC50 [1] | pIC50 [2] | pIC50 ([3]; Homo sapiens, THP-1, 0.25 h) | pIC50 [3] | Structure (SMILES)
> 7.00 | > 7.00 | – | – | Cc1ccc(C(O)(C(N)=O)C(F)(F)F)cc1-c1cnc2c(N)nc(C(F)(F)F)cn12 (single isomer, unassigned) [Example 1, 2-(3-(8-Amino-6-(trifluoromethyl)imidazo[1,2-a]pyrazin-3-yl)-4-methylphenyl)-3,3,3-trifluoro-2-hydroxypropanamide]
> 6.30 | – | < 6.00 | – | Cc1ccc(C(C)(O)C(F)(F)F)cc1-c1cnc2c(N)nc(C(=O)NCC(C)(C)O)cn12 (single isomer, unassigned) [Example 5, 8-Amino-N-(2-hydroxy-2-methylpropyl)-3-(2-methyl-5-(1,1,1-trifluoro-2-hydroxypropan-2-yl)phenyl)imidazo[1,2-a]pyrazine-6-carboxamide]
> 6.30 | – | – | > 6.30 | Cc1ccc(C(C)(O)C(F)(F)F)cc1-c1cnc2c(N)nc(C(=O)NCC(C)(C)O)cn12 (single isomer, unassigned) [Example 6, 8-Amino-N-(2-hydroxy-2-methylpropyl)-3-(2-methyl-5-(1,1,1-trifluoro-2-hydroxypropan-2-yl)phenyl)imidazo[1,2-a]pyrazine-6-carboxamide]
– | – | > 6.30 | – | [2H]C([2H])([2H])c1ccc(C(C)(O)C(F)(F)F)cc1-c1cnc2c(N)nc(C(=O)NCC(C)(C)O)cn12 (single isomer, unassigned) [Example 9, 8-Amino-N-(2-hydroxy-2-methylpropyl)-3-(2-(methyl-d3)-5-(1,1,1-trifluoro-2-hydroxypropan-2-yl)phenyl)imidazo[1,2-a]pyrazine-6-carboxamide]
